Marks after values point to notes of the source that are not given here.
Legend:
phenylacetyl-L-glutamine = assay: Human clinical trial in CKD patients: phenylacetyl-L-glutamine in plasma and early morning urine (LC-MS/MS); format: in vivo; set-up: key to Influence on concentration of PAG / Influence on PAG U/P ratio: Excellent effects: ◯; Poor effects: X; No significant difference: —; (◯): whether or not there is an effect of promoting excretion of indoxyl sulfate into the urine cannot be determined
Method: (§1) 1. […] Patients were assigned to each group so that age, sex, presence of diabetes, and eGFR were not biased. Each group was treated according to the “CKD medical care guide-summary of treatment” (hereinafter referred to as standard treatment).
(§2) An alkalinizing agent was not administered to the control group. […] A pH of early morning urine was controlled over time so that the dosage could be increased up to 6 tablets, 3 times a day (morning, noon, evening) as needed according to the discretion of the physician in cases where a pH of early morning urine was less than pH 6.5. To the group B, 3 tablets a day in which each tablet contained 500 mg of sodium bicarbonate were orally administered 3 times a day (morning, noon, evening) for 24 weeks. A pH of early morning urine was controlled over time so that the dosage could be increased up to 6 tablets, 3 times a day (morning, noon, evening) as needed according to the discretion of the physician in cases where a pH of early morning urine was less than pH 6.5.
(§3) Early morning urine and blood were collected before the start of administration, and 6 weeks, 12 weeks, and 24 weeks after the start of administration, and each specimen was stored at −80° C. Methods used in the present field for indoxyl sulfate, p-cresyl sulfate, phenylacetyl-L-glutamine, hippuric acid, and argininosuccinic acid in urine and blood (Sato, E., et. al., Metabolic alteration by indoxyl sulfate in skeletal muscle induce uremic sarcopenia in chronic kidney disease., Sci Rep. 2016 Nov. 10; 6:36618. doi: 10.1038/srep36618, and the like) were referred to, and quantitative analysis was performed using the following liquid chromatography triple quadrupole mass spectrometer (LC-MS/MS).
(§4) For LC, NANOSPACE SI-2 (manufactured by Shiseido) was used, and […] MGM was selected as the analytical column.
(§5) For MS, TSQ Quantiva (manufactured by Thermo Fisher Scientific Co., Ltd.) was used, and five compounds were ionized in the negative mode and detected using the Selected Reaction Monitoring method. The quantitative value was calculated using a calibration curve prepared with a standard solution of each compound.
(§6) For statistical analysis, the Mann-Whitney test was used for comparison between groups, and the Wilcoxon test was used for comparison of changes over time. The Pearson test was used for correlation.
(§7) Then, the average value and SD of each group were calculated for (i) to (ix) above. For each of (iv) to (ix) above, the average value and SD of each group were calculated for all data of 6 weeks, 12 weeks, and 24 weeks after the start of administration in each group.

indoxyl sulfate = assay: Human clinical trial in CKD patients: indoxyl sulfate in plasma and early morning urine (LC-MS/MS); format: in vivo; set-up: key to Influence on concentration of IS / Influence on IS U/P ratio: Excellent effects: ◯; Poor effects: X; No significant difference: —; (◯): whether or not there is an effect of promoting excretion of indoxyl sulfate into the urine cannot be determined
Method: as §1, §2, §3, §4, §5, §6, §7

[1] = 0 W, before the start of administration
[2] = 6-24 W, all data of 6, 12 and 24 weeks
[3] = Plasma, comparison with reference drug
[4] = Urine, comparison with reference drug
[5] = compared to before administration

Which “Phenyl Acetyl L-Glutamine (PAG)-Urine/Plasma ratio” value (phenylacetyl-L-glutamine; [1]) does the source give for `O=C([O-])O.[Na+]` [Bicarbonate, sodium bicarbonate] here?
Its value is 102.2 ± 96.5.

What about the “Plasma Phenyl Acetyl L-Glutamine (PAG)” value (phenylacetyl-L-glutamine; [1]) of the same compound?
Its value is 1324 ± 949 ng/mL.

What about the “Urine Phenyl Acetyl L-Glutamine (PAG) (early morning urine)” value (from here on “Urine Phenyl Acetyl L-Glutamine (PAG)”) (phenylacetyl-L-glutamine; [1]) of the same compound?
Its value is 124676 ± 149757 ng/mL.

What about the “PAG - Urine/Plasma ratio, change from week 0” value (phenylacetyl-L-glutamine; [2]) of the same compound?
The value was −14.9 ± 95.3.

And the “Phenyl Acetyl L-Glutamine (PAG)-Urine/Plasma ratio” value (phenylacetyl-L-glutamine; [2])?
The value was 87.3 ± 86.2.

What about the “Plasma PAG, change from week 0” value (phenylacetyl-L-glutamine; [2]) of the same compound?
The value was -98.6 ± 688.1 ng/mL.

What about the “Plasma Phenyl Acetyl L-Glutamine (PAG)” value (phenylacetyl-L-glutamine; [2]) of the same compound?
The value was 1226 ± 983 ng/mL.

And the “Urine PAG, change from week 0” value (phenylacetyl-L-glutamine; [2])?
The value was -13663 ± 74566 ng/mL.

What about the “Urine Phenyl Acetyl L-Glutamine (PAG)” value (phenylacetyl-L-glutamine; [2]) of the same compound?
The value was 109378 ± 163923 ng/mL.

What about the “PAG - Urine/Plasma ratio, change from week 0” value (phenylacetyl-L-glutamine; 6 W) of the same compound?
Its value is −8.5 ± 57.8.

And the “Phenyl Acetyl L-Glutamine (PAG)-Urine/Plasma ratio” value (phenylacetyl-L-glutamine; 6 W)?
Its value is 93.7 ± 84.0.

What about the “Plasma PAG, change from week 0” value (phenylacetyl-L-glutamine; 6 W) of the same compound?
Its value is -84.0 ± 636.1 ng/mL.

What about the “Plasma Phenyl Acetyl L-Glutamine (PAG)” value (phenylacetyl-L-glutamine; 6 W) of the same compound?
Its value is 1240 ± 1062 ng/mL.

What about the “Urine PAG, change from week 0” value (phenylacetyl-L-glutamine; 6 W) of the same compound?
The value was 20077 ± 118811 ng/mL.

And the “Urine Phenyl Acetyl L-Glutamine (PAG)” value (phenylacetyl-L-glutamine; 6 W)?
The value was 144753 ± 246773 ng/mL.

And the “PAG - Urine/Plasma ratio, change from week 0” value (phenylacetyl-L-glutamine; 12 W)?
The value was −31.8 ± 81.8.

And the “Phenyl Acetyl L-Glutamine (PAG)-Urine/Plasma ratio” value (phenylacetyl-L-glutamine; 12 W)?
The value was 70.4 ± 46.8.

What about the “Plasma PAG, change from week 0” value (phenylacetyl-L-glutamine; 12 W) of the same compound?
The value was -171.6 ± 896.9 ng/mL.

And the “Plasma Phenyl Acetyl L-Glutamine (PAG)” value (phenylacetyl-L-glutamine; 12 W)?
Its value is 1153 ± 1000 ng/mL.

And the “Urine PAG, change from week 0” value (phenylacetyl-L-glutamine; 12 W)?
Its value is -42198 ± 85069 ng/mL.

What about the “Urine Phenyl Acetyl L-Glutamine (PAG)” value (phenylacetyl-L-glutamine; 12 W) of the same compound?
Its value is 82478 ± 112943^b ng/mL.

What about the “concentration of phenylacetyl-L-glutamine in urine” value (phenylacetyl-L-glutamine; 12 and 24 weeks after administration, compared to before administration) of the same compound?
Its value is “such an effect was not recognized”.

What about the “PAG - Urine/Plasma ratio, change from week 0” value (phenylacetyl-L-glutamine; 24 W) of the same compound?
The value was −4.3 ± 133.9.

And the “Phenyl Acetyl L-Glutamine (PAG)-Urine/Plasma ratio” value (phenylacetyl-L-glutamine; 24 W)?
The value was 97.9 ± 116.4.

What about the “Plasma PAG, change from week 0” value (phenylacetyl-L-glutamine; 24 W) of the same compound?
The value was -40.3 ± 514.7 ng/mL.

What about the “Plasma Phenyl Acetyl L-Glutamine (PAG)” value (phenylacetyl-L-glutamine; 24 W) of the same compound?
Its value is 1284 ± 945 ng/mL.

And the “Urine PAG, change from week 0” value (phenylacetyl-L-glutamine; 24 W)?
Its value is -23774 ± 117957 ng/mL.

What about the “Urine Phenyl Acetyl L-Glutamine (PAG)” value (phenylacetyl-L-glutamine; 24 W) of the same compound?
The value was 100902 ± 91424 ng/mL.

What about the “Influence on concentration of PAG” value (phenylacetyl-L-glutamine; Plasma, comparison with Cont) of the same compound?
Its value is “—”.

And the “Influence on concentration of PAG” value (phenylacetyl-L-glutamine; [3])?
Its value is “—”.

What about the “Influence on PAG U/P ratio” value (phenylacetyl-L-glutamine; comparison with Cont) of the same compound?
Its value is “—”.

And the “Influence on PAG U/P ratio” value (phenylacetyl-L-glutamine; comparison with reference drug)?
Its value is “—”.

And the “Influence on concentration of PAG” value (phenylacetyl-L-glutamine; Urine, comparison with Cont)?
Its value is “—”.

What about the “Influence on concentration of PAG” value (phenylacetyl-L-glutamine; [4]) of the same compound?
Its value is “X”.

What about the “concentration of phenylacetyl-L-glutamine in plasma (decreasing effect)” value (phenylacetyl-L-glutamine; [5]) of the same compound?
Its value is “strongly recognized”.

And the “Indoxyl Sulfate-Urine/Plasma ratio” value (indoxyl sulfate; [1])?
The value was 55.5 ± 43.6.

What about the “Plasma Indoxyl Sulfate” value (indoxyl sulfate; [1]) of the same compound?
Its value is 1338 ± 770 ng/mL.

And the “Urine Indoxyl Sulfate (early morning urine)” value (indoxyl sulfate; [1])?
The value was 54379 ± 40259 ng/mL.

And the “Indoxyl Sulfate-Urine/Plasma ratio” value (indoxyl sulfate; [2])?
The value was 46.2 ± 33.7^d.

And the “Indoxyl Sulfate-Urine/Plasma ratio, change from week 0” value (indoxyl sulfate; [2])?
Its value is −10.33 ± 36.35.

What about the “Plasma Indoxyl Sulfate” value (indoxyl sulfate; [2]) of the same compound?
Its value is 1426 ± 930 ng/mL.

What about the “Plasma Indoxyl Sulfate, change from week 0” value (indoxyl sulfate; [2]) of the same compound?
The value was 107.0 ± 695.8 ng/mL.

And the “Urine Indoxyl Sulfate (early morning urine)” value (indoxyl sulfate; [2])?
The value was 48954 ± 35769^d ng/mL.

What about the “Urine Indoxyl Sulfate, change from week 0” value (indoxyl sulfate; [2]) of the same compound?
The value was -5425 ± 38514 ng/mL.

What about the “Indoxyl Sulfate-Urine/Plasma ratio” value (indoxyl sulfate; 6 W) of the same compound?
The value was 51.7 ± 36.4.

What about the “Indoxyl Sulfate-Urine/Plasma ratio, change from week 0” value (indoxyl sulfate; 6 W) of the same compound?
The value was −3.81 ± 37.48.

And the “Plasma Indoxyl Sulfate” value (indoxyl sulfate; 6 W)?
Its value is 1365 ± 821 ng/mL.

What about the “Plasma Indoxyl Sulfate, change from week 0” value (indoxyl sulfate; 6 W) of the same compound?
Its value is 27.5 ± 523.0 ng/mL.

What about the “Urine Indoxyl Sulfate (early morning urine)” value (indoxyl sulfate; 6 W) of the same compound?
Its value is 52510 ± 39229 ng/mL.

And the “Urine Indoxyl Sulfate, change from week 0” value (indoxyl sulfate; 6 W)?
The value was -1869 ± 19390 ng/mL.

And the “Indoxyl Sulfate-Urine/Plasma ratio” value (indoxyl sulfate; 12 W)?
Its value is 35.3 ± 26.4.

What about the “Indoxyl Sulfate-Urine/Plasma ratio, change from week 0” value (indoxyl sulfate; 12 W) of the same compound?
Its value is −22.41 ± 35.49.

And the “Plasma Indoxyl Sulfate” value (indoxyl sulfate; 12 W)?
The value was 1432 ± 1031 ng/mL.

What about the “Plasma Indoxyl Sulfate, change from week 0” value (indoxyl sulfate; 12 W) of the same compound?
The value was 153.1 ± 887.4 ng/mL.

What about the “Urine Indoxyl Sulfate (early morning urine)” value (indoxyl sulfate; 12 W) of the same compound?
The value was 37860 ± 26401 ng/mL.

What about the “Urine Indoxyl Sulfate, change from week 0” value (indoxyl sulfate; 12 W) of the same compound?
The value was -16519 ± 40380 ng/mL.

And the “Indoxyl Sulfate-Urine/Plasma ratio” value (indoxyl sulfate; 24 W)?
Its value is 50.7 ± 36.5^c.

What about the “Indoxyl Sulfate-Urine/Plasma ratio, change from week 0” value (indoxyl sulfate; 24 W) of the same compound?
The value was −4.78 ± 35.33.

And the “Plasma Indoxyl Sulfate” value (indoxyl sulfate; 24 W)?
Its value is 1481 ± 988 ng/mL.

What about the “Plasma Indoxyl Sulfate, change from week 0” value (indoxyl sulfate; 24 W) of the same compound?
The value was 143.4 ± 682.5 ng/mL.

What about the “Urine Indoxyl Sulfate (early morning urine)” value (indoxyl sulfate; 24 W) of the same compound?
Its value is 56492 ± 39593 ng/mL.

What about the “Urine Indoxyl Sulfate, change from week 0” value (indoxyl sulfate; 24 W) of the same compound?
Its value is 2113 ± 49356 ng/mL.

What about the “Influence on concentration of IS” value (indoxyl sulfate; Plasma, comparison with Cont) of the same compound?
Its value is “—”.

What about the “Influence on concentration of IS” value (indoxyl sulfate; [3]) of the same compound?
Its value is “X”.

And the “Influence on IS U/P ratio” value (indoxyl sulfate; comparison with Cont)?
Its value is “◯”.

And the “Influence on IS U/P ratio” value (indoxyl sulfate; comparison with reference drug)?
Its value is “X”.

And the “Influence on concentration of IS” value (indoxyl sulfate; Urine, comparison with Cont)?
Its value is “(◯)”.

And the “Influence on concentration of IS” value (indoxyl sulfate; [4])?
Its value is “X”.

And the “concentration of indoxyl sulfate in blood” value (indoxyl sulfate; [5])?
Its value is “such an effect was not recognized”.

And the “concentration of indoxyl sulfate in urine” value (indoxyl sulfate; [5])?
The value was “such an effect was not recognized”.

Reference: US20210121426A1, “BLOOD PURIFICATION BY ALKALINIZING AGENT” (TOHOKU UNIVERSITY, priority 2017, published 2021)
